This note sets out measurements from patent US20260015350A1, “AZAQUINAZOLINE PAN-KRAS INHIBITORS” (Mirati Therapeutics, Inc., priority 2022, published 2026).

In one test the target is T1, KRas^G12C (Homo sapiens, UniProt P01116, G12C).
T1 construct: Biotinylated KRas (corresponding to amino acids 1-169, produced at Accelegan Inc.); biotin (biotinylated); purchased Accelegan Inc
Kind of test: KRas binding assay (TR-FRET tracer displacement), KRas G12C. The settings on record: TR-FRET tracer displacement, KRas G12C. (TR-FRET usually uses a lanthanide donor and a delayed reading to cut background.)

The target in a further test is T2, KRas^G12D (Homo sapiens, UniProt P01116, G12D).
T2 construct: Biotinylated KRas (corresponding to amino acids 1-169, produced at Accelegan Inc.); biotin (biotinylated); purchased Accelegan Inc
T2 sequence (P01116 1-169 isoform P01116-2 G12D): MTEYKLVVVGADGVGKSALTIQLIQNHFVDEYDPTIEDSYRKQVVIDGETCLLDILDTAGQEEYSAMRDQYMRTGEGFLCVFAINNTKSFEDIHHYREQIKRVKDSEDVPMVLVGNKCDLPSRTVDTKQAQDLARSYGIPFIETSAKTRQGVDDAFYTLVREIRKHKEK
Nature of the test: KRas binding assay (TR-FRET tracer displacement), KRas G12D.

The next test concerns the target T3, KRas^G12R (Homo sapiens, UniProt P01116, G12R).
T3 construct: Biotinylated KRas (corresponding to amino acids 1-169, produced at Accelegan Inc.); biotin (biotinylated); purchased Accelegan Inc
Kind of test: KRas binding assay (TR-FRET tracer displacement), KRas G12R.

A further test has as its target T4, KRas^G12S (Homo sapiens, UniProt P01116, G12S).
T4 construct: Biotinylated KRas (corresponding to amino acids 1-169, produced at Accelegan Inc.); biotin (biotinylated); purchased Accelegan Inc
Nature of the test: KRas binding assay (TR-FRET tracer displacement), KRas G12S. The settings on record: TR-FRET tracer displacement, KRas G12S.

The next test addresses T5, KRas^G12V (Homo sapiens, UniProt P01116, G12V).
T5 construct: Biotinylated KRas (corresponding to amino acids 1-169, produced at Accelegan Inc.); biotin (biotinylated); purchased Accelegan Inc
Nature of the test: KRas binding assay (TR-FRET tracer displacement), KRas G12V.

Test [1] concerns KRas-mediated phosphorylation of ERK in MKN1 cells. Kind of test: Inhibition of KRas-mediated phosphorylation of ERK (Cisbio HTRF pERK), MKN1 cells. The class given is cell-based. The note with it: Homo sapiens, MKN-1. In short, it runs like this: (§1)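 HTRF pERK read-out; 6,000 cells/well, RPMI_10% FBS, overnight 37° C./5% CO2; 4 h covered incubation at RT before reading.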
In test [2] the test system is KRas-mediated phosphorylation of ERK in PSN1 cells. Nature of the test: Inhibition of KRas-mediated phosphorylation of ERK (Cisbio HTRF pERK), PSN1 cells. The class given is cell-based. The note with it: Homo sapiens. In short, it runs like this:
as §1

Test [3] deals with KRas-mediated phosphorylation of ERK in AsPC-1 cells. Nature of the test: Inhibition of KRas-mediated phosphorylation of ERK (Cisbio HTRF pERK), AsPC-1 cells. The note with it: Homo sapiens, ASPC1, AsPC-1 cells; HTRF pERK. The class given is cell-based. In short, it runs like this: (§2)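 H358, H727, H460 and AsPC-1 cells seeded at 6,000/well, treated 3 hrs with 10-dose 3-fold dilutions from 10 uM (0.8% DMSO); 0.2 uM trametinib as min control. Lysed 40 min at 4° C; lysate incubated 2 hrs at room temperature with d2/cryptate antibodies, HTRF read.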

Test [4] relates to KRas-mediated phosphorylation of ERK in H727 cells. Nature of the test: Inhibition of KRas-mediated phosphorylation of ERK (Cisbio HTRF pERK), H727 cells. The class given is cell-based. The settings on record: Homo sapiens, NCI-H727, H727 cells; HTRF pERK. A digest of the protocol:
as §2

In test [5] the test system is KRas-mediated phosphorylation of ERK in A549 cells. Nature of the test: Inhibition of KRas-mediated phosphorylation of ERK (Cisbio HTRF pERK), A549 cells. The class given is cell-based. The settings on record: Homo sapiens, HTRF pERK. In short, it runs like this:
(§3)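 Compound treatment lasts 3 hrs on 6,000 seeded cells, testing 10 doses from a 10 uM top concentration in 3-fold decrements at 0.8% final DMSO. Trametinib at 0.2 uM defines the Min signal. Detection is HTRF on cold-lysed cell extracts.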

The test system of test [6] is KRas-mediated phosphorylation of ERK in H460 cells. Nature of the test: Inhibition of KRas-mediated phosphorylation of ERK (Cisbio HTRF pERK), H460 cells. The class given is cell-based. The note with it: Homo sapiens, NCI-H460, HTRF pERK. A digest of the protocol:
as §2

Test [7] relates to KRas-mediated phosphorylation of ERK in HCT116 cells. Nature of the test: Inhibition of KRas-mediated phosphorylation of ERK (Cisbio HTRF pERK), HCT116 cells. The class given is cell-based. The note with it: Homo sapiens, HCT-116, HTRF pERK. In short, it runs like this:
as §3

Test [8] deals with KRas-mediated phosphorylation of ERK in H358 cells. Nature of the test: Inhibition of KRas-mediated phosphorylation of ERK (Cisbio HTRF pERK), H358 cells. The class given is cell-based. The note with it: Homo sapiens, NCI-H358, HTRF pERK. In short, it runs like this: as §2
A further test deals with T6, KRas^WT (Homo sapiens, UniProt P01116).
T6 construct: Biotinylated KRas (corresponding to amino acids 1-169, produced at Accelegan Inc.); biotin (biotinylated); purchased Accelegan Inc
T6 sequence (P01116 1-169 isoform P01116-2): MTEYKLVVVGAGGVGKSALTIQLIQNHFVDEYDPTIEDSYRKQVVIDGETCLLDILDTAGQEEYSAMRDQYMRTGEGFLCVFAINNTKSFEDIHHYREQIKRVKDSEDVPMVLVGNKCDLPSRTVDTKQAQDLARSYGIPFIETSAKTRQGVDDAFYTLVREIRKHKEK
Kind of test: KRas binding assay (TR-FRET tracer displacement), KRas WT. The note with it: TR-FRET tracer displacement, KRas WT.

Each structure is given as a SMILES string.

The IC50 is the point on the concentration scale where inhibition reaches its midpoint. Higher therefore signals lower potency.

T1 sequence (P01116 1-169 isoform P01116-2 G12C): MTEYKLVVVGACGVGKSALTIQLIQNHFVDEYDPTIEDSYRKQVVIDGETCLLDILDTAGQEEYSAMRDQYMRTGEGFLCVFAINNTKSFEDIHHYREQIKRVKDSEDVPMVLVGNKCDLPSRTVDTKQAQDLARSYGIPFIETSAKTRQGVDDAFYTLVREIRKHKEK
T4 sequence (P01116 1-169 isoform P01116-2 G12S): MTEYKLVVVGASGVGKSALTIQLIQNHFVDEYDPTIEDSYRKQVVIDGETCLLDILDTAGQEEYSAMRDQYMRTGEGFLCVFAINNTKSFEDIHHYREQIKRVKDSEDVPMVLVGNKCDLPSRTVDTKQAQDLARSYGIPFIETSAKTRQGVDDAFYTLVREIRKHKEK
T5 sequence (P01116 1-169 isoform P01116-2 G12V): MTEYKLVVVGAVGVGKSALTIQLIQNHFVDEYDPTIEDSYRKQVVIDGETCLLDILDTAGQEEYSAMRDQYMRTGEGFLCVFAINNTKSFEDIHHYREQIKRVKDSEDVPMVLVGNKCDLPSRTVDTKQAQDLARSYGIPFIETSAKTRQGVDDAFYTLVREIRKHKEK
T3 sequence (P01116 1-169 isoform P01116-2 G12R): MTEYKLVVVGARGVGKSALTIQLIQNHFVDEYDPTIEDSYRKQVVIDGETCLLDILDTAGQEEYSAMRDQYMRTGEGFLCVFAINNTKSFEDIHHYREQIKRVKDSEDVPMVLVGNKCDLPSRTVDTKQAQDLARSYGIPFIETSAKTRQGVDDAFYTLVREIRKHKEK

Regarding `CCc1c(F)ccc2cc(O)cc(-c3ncc4c(N5CC[C@H]6C(=O)O[C@H]6C5)nc(OC[C@@]56CCCN5C[C@H](F)C6)nc4c3F)c12` [Example 802, 3-(7-(8-ethyl-7-fluoro-3-hydroxynaphthalen-1-yl)-8-fluoro-2-(((2R,7aS)-2-fluorotetrahydro-1H-pyrrolizin-7a(5H)-yl)methoxy)pyrido[4,3-d]pyrimidin-4-yl)-8-oxa-3-azabicyclo[4.2.0]octan-7-one], the IC50 on KRas^G12C was 2 nM; on KRas^G12D, 189 nM; at KRas^G12R, 35 nM; at KRas^G12S, 2 nM; at KRas^G12V it was 116 nM; in test [1], > 10000 nM. In addition, the IC50 in test [2] is > 10000 nM; in test [3] it was > 10000 nM; in [4] it was > 10000 nM; in [5], 12 nM; in [6], > 10000 nM; in [7] it was > 10000 nM. The IC50 in [8] is 32 nM.
In the case of `CCc1c(F)ccc2cc(O)cc(-c3nc4c5c(nc(OC[C@@]67CCCN6C[C@H](F)C7)nc5c3F)NCCO4)c12` [Example 803, 5-ethyl-6-fluoro-4-(4-fluoro-2-(((2R,7aS)-2-fluorotetrahydro-1H-pyrrolizin-7a(5H)-yl)methoxy)-9,10-dihydro-8H-7-oxa-1,3,6,10-tetraazacyclohepta[de]naphthalen-5-yl)naphthalen-2-ol], the IC50 at KRas^WT turned out to be 20 nM; on KRas^G12C, 11 nM; on KRas^G12D, 14 nM; at KRas^G12S, 14 nM; at KRas^G12V, 9 nM.
For `CCc1c(F)ccc2cc3[nH]ncc3c(-c3ncc4c(N5CCC[C@]6(C5)NC(=O)NC6=O)nc(OC[C@@]56CCCN5C[C@H](F)C6)nc4c3F)c12` [Example 915, (5R)-7-(7-(5-ethyl-6-fluoro-1H-benzo[f]indazol-4-yl)-8-fluoro-2-(((2R,7aS)-2-fluorotetrahydro-1H-pyrrolizin-7a(5H)-yl)methoxy)pyrido[4,3-d]pyrimidin-4-yl)-1,3,7-triazaspiro[4.5]decane-2,4-dione], the IC50 on KRas^G12D was < 2 nM; on KRas^G12R it was < 2 nM; at KRas^G12V, < 2 nM; in test [1] it was 14 nM; in test [2] it was 1550 nM; in [3], 94 nM. Moreover, the IC50 in [4] amounted to 74 nM; in [5] it was 51 nM; in test [6], 36 nM; in [7], 60 nM; in test [8], 9 nM.
`CCc1c(F)ccc2cc(O)cc(-c3ncc4c(N5CC6CCC(C5)S6)nc(OC[C@@]56CCCN5C[C@H](F)C6)nc4c3F)c12` [Example 922, 4-(4-(8-thia-3-azabicyclo[3.2.1]octan-3-yl)-8-fluoro-2-(((2R,7aS)-2-fluorotetrahydro-1H-pyrrolizin-7a(5H)-yl)methoxy)pyrido[4,3-d]pyrimidin-7-yl)-5-ethyl-6-fluoronaphthalen-2-ol]: the IC50 at KRas^WT came out at 21 nM; on KRas^G12C, 18 nM; on KRas^G12D it was 74 nM; at KRas^G12S, 9 nM; on KRas^G12V it was 13 nM; in test [3], 1380 nM. Also, in test [4], the IC50 was found to be 576 nM.
As to `CCc1c(F)ccc2cc(O)cc(-c3ncc4c(N5C[C@@H]6C[C@H](C5)[C@H](O)C6)nc(OCC56CCCN5C/C(=C/F)C6)nc4c3F)c12` (stereo partly drawn) [Example 930, (1R,5R,6R)-3-(7-(8-ethyl-7-fluoro-3-hydroxynaphthalen-1-yl)-8-fluoro-2-(((E)-2-(fluoromethylene)tetrahydro-1H-pyrrolizin-7a(5H)-yl)methoxy)pyrido[4,3-d]pyrimidin-4-yl)-3-azabicyclo[3.2.1]octan-6-ol], the IC50 on KRas^WT was < 2 nM; on KRas^G12C, < 2 nM; on KRas^G12D it was < 2 nM; on KRas^G12S, < 2 nM; on KRas^G12V, < 2 nM; in test [3], 13 nM. Further, the IC50 came out at 4 nM in test [4], 3 nM in test [5] and 1 nM in [8].
`C=C1CN2CCCC2(COc2nc(N3CCCC4(CC(O)C4)C3)c3cnc(-c4cc(O)cc5ccc(F)c(CC)c45)c(F)c3n2)C1` (stereo not shown) [Example 934, 6-(7-(8-ethyl-7-fluoro-3-hydroxynaphthalen-1-yl)-8-fluoro-2-((2-methylenetetrahydro-1H-pyrrolizin-7a(5H)-yl)methoxy)pyrido[4,3-d]pyrimidin-4-yl)-6-azaspiro[3.5]nonan-2-ol]: the IC50 at KRas^WT was < 2 nM; on KRas^G12C, < 2 nM; on KRas^G12D it was < 2 nM; on KRas^G12S, < 2 nM; on KRas^G12V, < 2 nM; in test [1], 0.2 nM. Moreover, the IC50 is 11 nM in test [3], 6 nM in [4], 7 nM in test [5] and 1 nM in [8].
In the case of `C#Cc1c(F)ccc2cc(O)cc(-c3ncc4c(N5CCCC6(CCO6)C5)nc(OC[C@@]56CCCN5C[C@H](F)C6)nc4c3F)c12` (stereo partly drawn) [Example 935, 5-ethynyl-6-fluoro-4-(8-fluoro-2-(((2R,7aS)-2-fluorotetrahydro-1H-pyrrolizin-7a(5H)-yl)methoxy)-4-(1-oxa-6-azaspiro[3.5]nonan-6-yl)pyrido[4,3-d]pyrimidin-7-yl)naphthalen-2-ol], the IC50 on KRas^WT is 7 nM; on KRas^G12C, 7 nM; on KRas^G12D it was 4 nM; at KRas^G12S, 5 nM; on KRas^G12V it was 4 nM; in [3], 70 nM. Further, half-maximal inhibition in test [4] (IC50) required 73 nM.
Consider `C=C1CN2CCCC2(COc2nc(N3CCCC4(CC(=O)N4)C3)c3cnc(-c4cc(O)cc5ccc(F)c(CC)c45)c(F)c3n2)C1` (stereo not shown) [Example 943, 6-(7-(8-ethyl-7-fluoro-3-hydroxynaphthalen-1-yl)-8-fluoro-2-((2-methylenetetrahydro-1H-pyrrolizin-7a(5H)-yl)methoxy)pyrido[4,3-d]pyrimidin-4-yl)-1,6-diazaspiro[3.5]nonan-2-one], for which the IC50 is < 2 nM at KRas^WT; < 2 nM at KRas^G12C; < 2 nM at KRas^G12D; < 2 nM on KRas^G12S; < 2 nM on KRas^G12V; 0.4 nM in [1]. Also, the concentration for half-maximal inhibition (IC50) turned out to be 32 nM in test [3], 50 nM in test [4], 27 nM in test [5] and 4 nM in test [8].
For the compound `C=C1CN2CCCC2(COc2nc(N3CC4C(=O)NC(=O)C4C3)c3cnc(-c4cc(O)cc5ccc(F)c(CC)c45)c(F)c3n2)C1` (stereo not shown) [Example 947, 5-(7-(8-ethyl-7-fluoro-3-hydroxynaphthalen-1-yl)-8-fluoro-2-((2-methylenetetrahydro-1H-pyrrolizin-7a(5H)-yl)methoxy)pyrido[4,3-d]pyrimidin-4-yl)tetrahydropyrrolo[3,4-c]pyrrole-1,3(2H,3aH)-dione], the IC50 was < 2 nM at KRas^WT; < 2 nM at KRas^G12C; < 2 nM at KRas^G12D; < 2 nM on KRas^G12S; < 2 nM at KRas^G12V; 4 nM in test [1]. Moreover, the IC50 in test [3] was determined as 157 nM; in test [4], 352 nM; in test [5], 119 nM; in [8], 29 nM.
